The target in data set [1] is T1, FLAT-expressing Hek293 cells (Rattus norvegicus, UniProt P97612, DEL9-76).
T1 construct: expressed in transfected cells
T1 sequence (P97612 with tags, fused parts or gaps DEL9-76): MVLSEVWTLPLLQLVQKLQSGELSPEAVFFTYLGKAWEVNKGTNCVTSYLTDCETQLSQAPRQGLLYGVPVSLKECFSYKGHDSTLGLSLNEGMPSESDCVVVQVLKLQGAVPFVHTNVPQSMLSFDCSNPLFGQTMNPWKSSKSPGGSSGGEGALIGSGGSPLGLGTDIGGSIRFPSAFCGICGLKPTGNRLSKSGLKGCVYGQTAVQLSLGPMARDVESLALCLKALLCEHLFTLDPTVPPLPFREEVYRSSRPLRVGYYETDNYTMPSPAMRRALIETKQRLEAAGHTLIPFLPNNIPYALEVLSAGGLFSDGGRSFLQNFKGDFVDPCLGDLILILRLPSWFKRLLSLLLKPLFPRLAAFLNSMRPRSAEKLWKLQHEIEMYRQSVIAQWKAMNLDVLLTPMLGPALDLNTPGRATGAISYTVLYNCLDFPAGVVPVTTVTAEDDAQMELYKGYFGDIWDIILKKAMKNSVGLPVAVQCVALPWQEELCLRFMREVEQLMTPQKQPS
Briefly: [3H]-anandamide accumulation (translocation) in FLAT-expressing Hek293 cells. It is filed as cell-based. Conditions: for IC50: 5 min at 37° C., read-out: IC50, inhibition of [3H]-anandamide accumulation in FLAT-expressing Hek293 cells.

The test system of data set [2] is rat cortical neurons in primary cultures. Briefly: [3H]-anandamide accumulation in rat cortical neurons in primary cultures. The class given is cell-based. As to conditions: Cortical neurone, read-out: IC50, inhibition of [3H]-anandamide accumulation in rat cortical neurons. The method, then:
Primary cultures of rat cortical neurons were prepared as described (Evans, M. S. et al., J Neurosci Methods, 79, 37 (1998)). Briefly, cerebral cortices from 18 day-old rat embryos were dissected and cells were dissociated gently with a glass Pasteur pipette in phosphate-buffered saline (PBS, 10 mM, pH=7.5) containing glucose (6%, weight/volume). The cells were plated in 6-well plates (at a density of 5×10^5 cells per well) coated with poly-(L)-ornithine (10 μg/ml) and poly(DL)-lysine (100 μg/ml), and cultured in Eagle's Minimum Essential Medium (MEM) supplemented with heat-inactivated horse serum (5%, vol/vol) and fetal bovine serum (FBS, 5%, vol/vol), glucose (30 mM), L-glutamine (2 mM), penicillin (10 units/ml), streptomycin (10 μg/ml) and HEPES (15 mM, pH 7.4). After 3 days in culture, media were replaced with Neurobasal (Invitrogen, Carlsbad, Calif.) supplemented with B-27 containing L-glutamine (0.1 mM), streptomycin (10 μg/ml) and penicillin (10 units/ml). The cultures were maintained at 37° C. in a humidified atmosphere of 95% air and 5% CO2. […] The cells were rinsed twice with Tris-Krebs buffer, scraped twice into sodium hydroxide (0.2 N, 0.5 ml) and transferred into scintillation vials. […] All experiments were conducted in triplicate.

Another data set deals with T2, rat brain FAAH (Rattus norvegicus, UniProt P97612).
T2 construct: from tissue; host or cells: rat brain membranes
T2 sequence (P97612 1-579): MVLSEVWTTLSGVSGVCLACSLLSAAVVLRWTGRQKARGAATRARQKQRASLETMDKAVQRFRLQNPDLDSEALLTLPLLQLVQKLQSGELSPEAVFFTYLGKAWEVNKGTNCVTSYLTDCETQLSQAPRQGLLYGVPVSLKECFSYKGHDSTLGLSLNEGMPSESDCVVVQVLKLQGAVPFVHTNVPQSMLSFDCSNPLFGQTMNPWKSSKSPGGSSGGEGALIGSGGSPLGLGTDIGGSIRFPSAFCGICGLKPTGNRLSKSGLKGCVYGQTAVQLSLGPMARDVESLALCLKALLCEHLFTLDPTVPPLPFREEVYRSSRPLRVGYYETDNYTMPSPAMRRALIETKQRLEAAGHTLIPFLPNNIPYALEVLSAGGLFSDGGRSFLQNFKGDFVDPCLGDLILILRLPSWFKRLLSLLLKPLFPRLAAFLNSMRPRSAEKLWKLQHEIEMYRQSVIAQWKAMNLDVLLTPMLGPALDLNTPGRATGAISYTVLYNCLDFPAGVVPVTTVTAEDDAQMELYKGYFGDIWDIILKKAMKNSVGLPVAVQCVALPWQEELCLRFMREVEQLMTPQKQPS
Kind of data set: FAAH activity assay, rat brain. As to conditions: weak and incomplete inhibition. The class given is biochemical. As to the method:
Cells were harvested and subjected to sonication in Tris-HCl buffer (50 mM, pH 8.0) containing sucrose ([…]). Debris was removed by centrifugation for 5 min at 1,000×g, and protein concentration measured using a commercial kit (Bio-Rad, Hercules, Calif.). […] After stopping the reactions with chloroform/methanol (1:1, vol/vol, 1 ml), radioactivity was measured in the aqueous layers.

A further data set deals with T3, recombinant human FAAH-1 (Homo sapiens, UniProt O00519).
T3 sequence (O00519 1-579): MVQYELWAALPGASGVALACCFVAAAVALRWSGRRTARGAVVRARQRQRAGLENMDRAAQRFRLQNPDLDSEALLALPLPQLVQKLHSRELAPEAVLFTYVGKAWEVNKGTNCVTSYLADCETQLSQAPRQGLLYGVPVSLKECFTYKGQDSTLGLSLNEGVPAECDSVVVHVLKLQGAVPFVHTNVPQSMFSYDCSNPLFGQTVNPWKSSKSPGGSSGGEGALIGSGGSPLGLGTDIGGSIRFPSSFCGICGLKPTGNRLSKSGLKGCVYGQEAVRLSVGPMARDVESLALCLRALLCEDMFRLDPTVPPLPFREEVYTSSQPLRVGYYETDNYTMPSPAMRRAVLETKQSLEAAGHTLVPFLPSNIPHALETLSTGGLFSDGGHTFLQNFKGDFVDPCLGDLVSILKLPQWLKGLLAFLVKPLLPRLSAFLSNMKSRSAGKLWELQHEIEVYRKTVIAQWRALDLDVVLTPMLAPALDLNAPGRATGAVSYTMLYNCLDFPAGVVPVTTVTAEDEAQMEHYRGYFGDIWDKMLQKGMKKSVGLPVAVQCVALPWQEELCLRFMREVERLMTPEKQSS
Kind of data set: Hydrolysis of compound by incubation with recombinant human FAAH-1. It is filed as in vitro ADME. As to conditions: after 24 h at 25° C.

Data set [3] is described as follows: Fatty acid amide measurements ex vivo (plasma levels in mice). Conditions: 1 mg/kg intraperitoneal. As to the method:
CD1 mice received intraperitoneal injections of vehicle (5% polyethylene glycol 400-5% Tween-80 in saline, 5 ml/kg) or ARN272 (1 mg/kg) and were sacrificed 1 h or 2 h later under isoflurane anaesthesia. Blood was collected through a left cardiac puncture and centrifuged at 2000×g for 30 min. Plasma (0.2 ml) was incubated with 1 ml cold acetone, centrifuged at 1,500×g for 15 min at 4° C. and suspended in 50% methanol (2 ml) containing the following deuterium-containing standards: […] Lipids were reconstituted in methanol (0.1 ml) and measured by isotope-dilution liquid chromatography/mass spectrometry (Fu, J. et al., J Biol Chem, 282, 1518 (2007)).

In the next data set the test system is carrageenan-treated mice. Kind of data set: Carrageenan-induced inflammatory pain and paw edema in mice. The class given is in vivo. Conditions: for effect of antagonist on the anti-hyperalgesic and anti-edema effects of ARN272: antagonist 1 mg/kg intraperitoneal, 30 min before carrageenan. As to the method: Behavioral experiments were performed in accordance with the Ethical Guidelines of the International Association for the Study of Pain and approved by Italian regulations on protection of animals used for experimental and other scientific purposes (D.M. 116192) as well as with European Economic Community regulations (O.J. of E.C. L 358/1 Dec. 18, 1986). Behavioral testing was performed between 9:00 a.m. and 5:00 p.m., in a quiet room, during the light cycle. Mice were used once and were sacrificed at the end of the experiment by cervical dislocation. edema was elicited by injecting λ-carrageenan (1% weight/vol in sterile water, 20 μl) into the left hindpaw of mice. Edema was measured with a plethysmometer (Ugo Basile, Comerio, Italy) at different time intervals. Drug solutions were prepared immediately before use in saline containing 10% PEG-400 and 10% Tween 80. Mechanical hyperalgesia was determined by measuring the latency in seconds to withdraw the paw away from a constant mechanical pressure exerted onto the dorsal surface. A 15-g calibrated glass cylindrical rod (diameter=10 mm) chambered to a conical point (diameter=3 mm) was used to exert the mechanical force. The weight was suspended vertically between two rings attached to a stand and was free to move vertically. A cutoff time of 180 s was used. Withdrawal thresholds were measured on both the inflamed paw (ipsilateral) and not inflamed paw (contralateral) 2, 4, 6 and 24 hours after carrageenan injection. Thermal hyperalgesia was assessed by the method of Hargreaves et al. (1988) by measuring the latency to withdraw the hind paw from a focused beam of radiant heat (thermal intensity: infrared 3.0) applied to the plantar surface using a plantar test apparatus (Ugo Basile). The cutoff time was set at 30 s. Withdrawal latency were measured on both inflamed and not-inflamed paws ( ) 2, 4, 6 and 24 hours after carrageenan injection. Vehicle or ARN272 (0.01-3 mg/kg, intraperitoneal) were injected immediately before carrageenan. AM251, AM630 and AMG 9810 (1 mg/kg, intraperitoneal) were injected 30 min before carrageenan.

Data set [4] has as its target T4, CB1 cannabinoid receptors (Rattus norvegicus, UniProt P20272).
T4 construct: Brain membrane protein (50 μg) was incubated at 30° C. for 1 hr; from tissue; host or cells: rat brain membranes
Briefly: Cannabinoid receptor binding assay, [3H]-CP55940 to rat brain membranes.

In a further data set the target is T5, rat FLAT-GST (Rattus norvegicus, UniProt P97612, DEL9-76).
T5 construct: made in house; host or cells: E. coli BL21
T5 sequence (P97612 with tags, fused parts or gaps DEL9-76): T1 sequence (P97612 with tags, fused parts or gaps DEL9-76)
Kind of data set: [3H]-anandamide binding to purified GST-FLAT fusion protein. As to the method:
A pGEX-rFLAT plasmid containing fused rat FLAT and GST genes was constructed into a pGEX-4T vector (Amersham Biosciences, Piscataway, N.J.) and digested with BamH 1. The GST-FLAT fusion protein was generated in E. coli (BL21 strain, Novagen, San Diego, Calif.). E. coli were cultured in 2× yeast extract medium and induced with isopropyl-1-thio-β-D-galactopyranoside (IPTG) (0.1 mM). After induction, bacteria were grown at 27° C. for 10 h and harvested by centrifugation. The GST-FLAT fusion protein was purified using glutathione-sepharose beads (Amersham Biosciences), following manufacturer's instructions. Purified GST-FLAT was incubated at 25° C. for 2 h in HEPES buffer (50 mM, pH 7.0) containing KCl (50 mM), EDTA (5 mM), dithiothreitol (10 mM), and [^3H]-anandamide (15 Ci/mmol). Free from bound [^3H]-anandamide was separated on a Sephadex G-25 spin column (Amersham Biosciences) and radioactivity in the bound fraction was measured by liquid scintillation counting. Non-specific binding was determined in the presence of non-radioactive anandamide (10 μM).

For a further data set, the system named is rat cortical neurons. Conditions: read-out: apparent Michaelis constant, KM, of anandamide transport; cited from earlier work.

T4 sequence (P20272 whole entry): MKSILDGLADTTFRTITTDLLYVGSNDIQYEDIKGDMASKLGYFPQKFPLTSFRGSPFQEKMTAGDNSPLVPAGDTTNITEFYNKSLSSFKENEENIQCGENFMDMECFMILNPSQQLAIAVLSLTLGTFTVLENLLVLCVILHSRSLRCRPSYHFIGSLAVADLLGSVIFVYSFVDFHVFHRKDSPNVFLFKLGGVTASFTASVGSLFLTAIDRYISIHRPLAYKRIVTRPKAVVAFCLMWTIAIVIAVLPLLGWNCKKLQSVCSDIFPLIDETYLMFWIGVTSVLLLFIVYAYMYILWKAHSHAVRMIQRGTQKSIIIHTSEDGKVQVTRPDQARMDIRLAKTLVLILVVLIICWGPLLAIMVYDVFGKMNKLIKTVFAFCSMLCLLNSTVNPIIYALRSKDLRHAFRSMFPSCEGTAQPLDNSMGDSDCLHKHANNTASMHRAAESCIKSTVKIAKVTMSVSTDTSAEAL

As usually defined, the IC50 is the concentration that gives 50% inhibition. Usually inhibition stands for the change of the read-out against control, counted positive when it falls. Low values mean a weak effect, high ones a strong effect. Turning to `O=C(Nc1ccccc1)c1ccc(Nc2nnc(-c3ccc(O)cc3)c3ccccc23)cc1` [ARN272, 4-{[4-(4-hydroxyphenyl)phthalazin-1-yl]amino-N-phenylbenzamide}], the IC50 in [1] was determined as 3.5 µM. In [2], the IC50 stood at 1.5 µM. Further, the inhibition at 100 µM on rat brain FAAH was 50%. Moreover, the “fraction hydrolyzed by recombinant human FAAH-1” value at recombinant human FAAH-1 is “≈ 5%”. In [3], the “plasma concentrations of anandamide” value is recorded as “increased”, the “plasma levels of 2-AG” value was “without changing”, the “plasma levels of OEA” value is given as “without changing” and the “plasma levels of PEA” value is “without changing”. In addition, in the data set on carrageenan-treated mice (0.01-3 mg/kg intraperitoneal), the “mechanical hyperalgesia in inflamed paws” value is listed as “dose-dependent reduction” and the “thermal hyperalgesia in inflamed paws” value is “dose-dependent reduction”. Further, the “duration of anti-hyperalgesic effect” value in the data set with carrageenan-treated mice (after intraplantar carrageenan) was “up to 4 h”. Further, the paw edema entry in the data set with carrageenan-treated mice (intraperitoneal) is reported as “substantially reduced”. Further, the “effect on [3H]-CP55940 binding to rat brain membranes” value in data set [4] was “did not significantly alter”.

As to `CCCCC/C=C\C/C=C\C/C=C\C/C=C\CCCC(=O)Nc1ccc(O)cc1` [AM404], the IC50 on rat FLAT-GST (purified recombinant FLAT, read-out: IC50, displacement of [3H]-anandamide binding to FLAT-GST) is 5.3 µM; in data set [1] it was 4 µM.

For the compound `CCCCC/C=C\C/C=C\C/C=C\C/C=C\CCCC(=O)Nc1ccc(O)cc1C` [VDM11], in data set [1] (transport inhibitors), the “effect on [3H]-anandamide accumulation in FLAT-expressing Hek293 cells” value (“effect on [3H]-anandamide accumulation” below) is on record as “prevented”.

For the compound `CCCCC/C=C\C/C=C\C/C=C\C/C=C\CCCC(=O)NCc1ccoc1` [UCM707], the “effect on [3H]-anandamide accumulation” value in data set [1] (transport inhibitors) was “prevented”.

Turning to `Cc1c(C(=O)NN2CCCCC2)nn(-c2ccc(Cl)cc2Cl)c1-c1ccc(I)cc1` [AM251, reference compound], the “effect of antagonist on the anti-hyperalgesic and anti-edema effects of ARN272” value (from here on “effect of antagonist”) in the data set with carrageenan-treated mice was “suppressed”.

`COc1ccc(C(=O)c2c(C)n(CCN3CCOCC3)c3cc(I)ccc23)cc1` [AM630, reference compound]: the “effect of antagonist” value in the data set with carrageenan-treated mice is recorded as “ineffective”.

What is called Kd is the free concentration of one partner at which half of the binding sites on the other are occupied at equilibrium, for simple one-to-one binding. Broadly, the Km is the concentration of substrate that gives half-maximal velocity. In the case of `CCCCC/C=C\C/C=C\C/C=C\C/C=C\CCCC(=O)NCCO` [anandamide], the dissociation constant Kd on rat FLAT-GST (saturation binding, 25° C., 2 h, read-out: dissociation constant, Kd, of [3H]-anandamide binding to FLAT-GST) was determined as 2 µM. For the same compound, the “effect on [3H]-anandamide accumulation” value in [1] (non-radioactive anandamide, 100 μM) was “prevented”. The Km with rat cortical neurons was 1.2 µM.

With `CC(C)(C)c1ccc(/C=C/C(=O)Nc2ccc3c(c2)OCCO3)cc1` [AMG9810, reference compound], in the data set with carrageenan-treated mice, the “effect of antagonist” value is “ineffective”.

The values are drawn from patent US20140163034A1, “INHIBITORS OF ANANDAMIDE TRANSPORT AND THEIR THERAPEUTIC USES” (IIT - Istituto Italiano di Tecnologia, priority 2011, published 2014).
